# From patent US20210363213A1, “GLUCAGON-GLP-1-GIP TRIPLE AGONIST COMPOUNDS” (priority 2013, published 2021)
# Like-named read-outs stand apart in the source and are kept apart here. Numbered stars: 1 amine (or outer) side, 2 acyl side, 3 side chain; on linkers, the order of the positions; unused ones are H or OH. Square brackets hold non-standard residues; d marks the D form. Side chains are listed from the residue outwards. Peptide text beside a SMILES is read from it. * marks the point of attachment. γGlu = O=C(O)[C@H](CCC(=O)[*:2])N[*:1]; Stearoyl = CCCCCCCCCCCCCCCCCC(=O)*; AEEA = NCCOCCOCC(=O)O; Aib = CC(C)(N)C(=O)O
# How the values were obtained:
# human GIP R = target: T1, human GIP R (Homo sapiens, UniProt P48546); experiment: Human GIP receptor (GIP-R) activity assay, cAMP induction (AlphaScreen) in HEK293 cells; assay type: cell-based; settings: average EC50, cAMP in HEK293 cells expressing human GIP R, read-out: GIP R (EC50 in nM)
# T1 construct: expressed in transfected cells
# T1 sequence (P48546 22-466): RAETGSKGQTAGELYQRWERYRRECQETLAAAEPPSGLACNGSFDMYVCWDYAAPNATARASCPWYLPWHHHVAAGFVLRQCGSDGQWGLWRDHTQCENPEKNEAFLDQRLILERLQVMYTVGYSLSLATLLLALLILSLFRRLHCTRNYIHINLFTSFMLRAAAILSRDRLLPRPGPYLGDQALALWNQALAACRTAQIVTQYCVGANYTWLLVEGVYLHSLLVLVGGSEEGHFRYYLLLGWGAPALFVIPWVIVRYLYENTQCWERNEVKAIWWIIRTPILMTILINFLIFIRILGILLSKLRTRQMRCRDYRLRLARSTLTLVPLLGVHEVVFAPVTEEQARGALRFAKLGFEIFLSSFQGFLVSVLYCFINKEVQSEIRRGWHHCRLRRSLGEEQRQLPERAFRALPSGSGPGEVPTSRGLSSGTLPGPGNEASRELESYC
# Method: (§1) Briefly, HEK293 cells expressing the human GIP R, GLP-1 R or GCG R (stable cell lines generated through transfection of the cDNA for human GIP R, GLP-1 R or GCG R and selection of stable clones) were seeded at 30,000 cells/well in 96-well microtiter plates coated with 0.01% poly-L-lysine, and grown for 1 day in culture in 200 μl growth medium (DMEM, 10% FCS, Penicillin (100 IU/ml), Streptomycin (100 μg/ml)). On the day of analysis, growth medium was removed and the cells were washed once with 150 μl Tyrode's buffer (Tyrode's Salts (9.6 g/I), 10 mM HEPES, pH 7.4). […] The Assay buffer was removed and cells are lysed in 80 μl Lysis buffer (0.1% w/v BSA, 5 mM HEPES, 0.3% v/v Tween-20) per well. From each well 10 μl of lysed cells were transferred to a 384-well plate and mixed with 15 μl bead-mix (1 Unit/15 μl anti-cAMP Acceptor Beads, 1 Unit/15 μl Donor Beads, and 1 Unit/15 μl Biotinylated cAMP in Assay Buffer). The plates were mixed and incubated in the dark for an hour at room temperature before measuring using an Envision™ plate reader (Perkin-Elmer).
# (§2) The resulting cAMP curves were plotted as absolute cAMP concentrations (nM) over log (test compound concentration) and analyzed using the curve fitting program XLfit.
# (§3) Parameters calculated to describe both the potency as well as the agonistic activity of each test compound on the receptors were:
# (§4) EC50, a concentration resulting in a half-maximal elevation of cAMP levels, reflecting the potency of the test compound.
# human GCG R = human GCG R (Homo sapiens, UniProt P47871); settings: read-out: GCG R (EC50 in nM); Table 2; average EC50; cAMP in HEK293 cells expressing human GCG R
# Sequence of human GCG R (P47871 26-477): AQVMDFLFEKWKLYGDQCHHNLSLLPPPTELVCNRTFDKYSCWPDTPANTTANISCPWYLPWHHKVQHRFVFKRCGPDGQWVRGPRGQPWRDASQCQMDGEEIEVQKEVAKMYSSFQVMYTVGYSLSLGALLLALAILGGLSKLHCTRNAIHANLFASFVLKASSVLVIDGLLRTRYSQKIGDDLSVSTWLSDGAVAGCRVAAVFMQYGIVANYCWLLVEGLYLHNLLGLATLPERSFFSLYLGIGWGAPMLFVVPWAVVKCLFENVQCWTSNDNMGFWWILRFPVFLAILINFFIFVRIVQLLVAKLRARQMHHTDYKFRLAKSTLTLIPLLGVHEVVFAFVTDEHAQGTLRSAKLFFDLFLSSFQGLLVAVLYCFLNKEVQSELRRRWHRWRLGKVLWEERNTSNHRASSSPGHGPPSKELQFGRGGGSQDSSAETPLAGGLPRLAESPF
# Method: as §1, §2
# Parameters calculated to describe both the potency as well as the agonistic activity of each test compound on the receptors were: […]
# human GLP-1 R = target: T2, human GLP-1 R (Homo sapiens, UniProt P43220); experiment: Human GLP-1 receptor (GLP-1-R) activity assay, cAMP induction (AlphaScreen) in HEK293 cells; assay type: cell-based; settings: average EC50, cAMP in HEK293 cells expressing human GLP-1 R, read-out: GLP1 R (EC50 in nM)
# T2 construct: expressed in transfected cells
# T2 sequence (P43220 24-463): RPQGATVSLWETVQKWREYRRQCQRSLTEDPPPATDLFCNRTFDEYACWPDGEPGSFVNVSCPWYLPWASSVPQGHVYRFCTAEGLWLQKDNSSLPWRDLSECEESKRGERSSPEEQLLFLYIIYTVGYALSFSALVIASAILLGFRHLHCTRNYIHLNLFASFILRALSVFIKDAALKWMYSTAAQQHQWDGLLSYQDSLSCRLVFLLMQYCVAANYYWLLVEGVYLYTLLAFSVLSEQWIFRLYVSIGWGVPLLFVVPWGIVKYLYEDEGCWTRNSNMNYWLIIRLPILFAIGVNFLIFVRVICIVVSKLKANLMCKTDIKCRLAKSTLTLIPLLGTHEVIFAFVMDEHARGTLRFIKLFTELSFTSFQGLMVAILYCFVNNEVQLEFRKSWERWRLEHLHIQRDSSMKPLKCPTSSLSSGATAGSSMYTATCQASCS
# Method: as §1, §2, §3, §4
# [1] = Table 2b (most comprehensive data)
Structure (SMILES),EC50 (human GIP R; Table 2) [nM],EC50 (human GCG R) [nM],EC50 (human GLP-1 R; Table 2) [nM],EC50 (human GIP R; [1]) [nM],EC50 (human GLP-1 R; [1]) [nM]
CC[C@H](C)[C@H](NC(=O)[C@H](CO)NC(=O)[C@H](Cc1ccc(O)cc1)NC(=O)[C@H](CC(=O)O)NC(=O)[C@H](CO)NC(=O)[C@@H](NC(=O)[C@H](Cc1ccccc1)NC(=O)[C@@H](NC(=O)CNC(=O)[C@H](CCC(N)=O)NC(=O)C(C)(C)NC(=O)[C@@H](N)Cc1ccc(O)cc1)[C@@H](C)O)[C@@H](C)O)C(=O)N[C@@H](Cc1ccc(O)cc1)C(=O)N[C@@H](CC(C)C)C(=O)N[C@@H](CCC(=O)O)C(=O)N[C@@H](CCCCN)C(=O)N[C@@H](CCCCN)C(=O)N[C@@H](C)C(=O)N[C@@H](C)C(=O)N[C@@H](Cc1c[nH]cn1)C(=O)N[C@@H](CC(=O)O)C(=O)N[C@@H](Cc1ccccc1)C(=O)N[C@H](C(=O)N[C@@H](CCC(=O)O)C(=O)N[C@@H](Cc1c[nH]c2ccccc12)C(=O)N[C@@H](CC(C)C)C(=O)N[C@@H](CC(C)C)C(=O)N[C@@H](CO)C(=O)N[C@@H](C)C(N)=O)C(C)C [Compound 14] (HELM PEPTIDE1{Y.[Aib].Q.G.T.F.T.S.D.Y.S.I.Y.L.E.K.K.A.A.H.D.F.V.E.W.L.L.S.A.[am]}$$$$V2.0),0.06,0.1,0.013,–,–
CC[C@H](C)[C@H](NC(=O)[C@H](CO)NC(=O)[C@H](Cc1ccc(O)cc1)NC(=O)[C@H](CC(=O)O)NC(=O)[C@H](CO)NC(=O)[C@@H](NC(=O)[C@H](Cc1ccccc1)NC(=O)[C@@H](NC(=O)CNC(=O)[C@H](CCC(N)=O)NC(=O)C(C)(C)NC(=O)[C@@H](N)Cc1ccc(O)cc1)[C@@H](C)O)[C@@H](C)O)C(=O)N[C@@H](Cc1ccc(O)cc1)C(=O)N[C@@H](CC(C)C)C(=O)N[C@@H](CCC(=O)O)C(=O)N[C@@H](CCCCN)C(=O)N[C@@H](CCCCN)C(=O)N[C@@H](C)C(=O)N[C@@H](C)C(=O)N[C@@H](Cc1c[nH]cn1)C(=O)N[C@@H](CC(=O)O)C(=O)N[C@@H](Cc1ccccc1)C(=O)N[C@H](C(=O)N[C@@H](CCC(=O)O)C(=O)N[C@@H](Cc1c[nH]c2ccccc12)C(=O)N[C@@H](CC(C)C)C(=O)N[C@@H](CC(C)C)C(=O)N[C@@H](CO)C(=O)N[C@@H](C)C(N)=O)C(C)C [Compound 15] (HELM PEPTIDE1{Y.[Aib].Q.G.T.F.T.S.D.Y.S.I.Y.L.E.K.K.A.A.H.D.F.V.E.W.L.L.S.A.[am]}$$$$V2.0),0.025,0.058,0.016,–,–
CCCCCCCCCCCCCCCCCC(=O)N[C@@H](CCC(=O)NCCOCCOCC(=O)NCCOCCOCC(=O)NCCCC[C@H](NC(=O)[C@H](CCCCN)NC(=O)[C@H](CC(=O)O)NC(=O)[C@H](CC(C)C)NC(=O)[C@H](Cc1ccc(O)cc1)NC(=O)[C@@H](NC(=O)[C@H](CO)NC(=O)[C@H](Cc1ccc(O)cc1)NC(=O)[C@H](CC(=O)O)NC(=O)[C@H](CO)NC(=O)[C@@H](NC(=O)[C@H](Cc1ccccc1)NC(=O)[C@@H](NC(=O)CNC(=O)[C@H](CCC(N)=O)NC(=O)C(C)(C)NC(=O)[C@@H](N)Cc1ccc(O)cc1)[C@@H](C)O)[C@@H](C)O)[C@@H](C)CC)C(=O)N[C@@H](C)C(=O)N[C@@H](CCC(N)=O)C(=O)N[C@@H](CCCNC(=N)N)C(=O)N[C@@H](C)C(=O)N[C@@H](Cc1ccccc1)C(=O)N[C@H](C(=O)N[C@@H](CCC(=O)O)C(=O)N[C@@H](Cc1c[nH]c2ccccc12)C(=O)N[C@@H](CC(C)C)C(=O)N[C@@H](CC(C)C)C(=O)N[C@@H](C)C(=O)N[C@@H](CCC(N)=O)C(=O)NCC(=O)N1CCC[C@H]1C(=O)N[C@@H](CO)C(=O)N[C@@H](CO)C(=O)NCC(=O)N[C@@H](C)C(=O)N1CCC[C@H]1C(=O)N1CCC[C@H]1C(=O)N1CCC[C@H]1C(=O)N[C@@H](CO)C(N)=O)C(C)C)C(=O)O [Compound 35] (H-Y[Aib]QGTFTSDYSIYLDKK([AEEA-AEEA-γGlu-Stearoyl])AQRAFVEWLLAQGPSSGAPPPS-NH2),–,–,–,0.01,0.012
